Two molecules from patent US20230233144A1, “Method for Determining Medication Adherence and Taggants Therefo” (The Regents of the University of Colorado, A Body Corporate, priority 2021, published 2023) can be followed below.

For series [1] the following is noted: in vivo. From the text: Example 2: An assay for a tenofovir (a PrEP drug) anabolite, tenofovir-diphosphate in red blood cells, which may be collected in dried blood spots (DBS), is disclosed as an adherence assessment. […] This enables assessment of cumulative dosing, indicative of degrees or gradients of adherence, over the preceding 1-2 months for tenofovir-based PrEP. This is analogous to how hemoglobin A1C works for cumulative glucose exposure. […] FIG. 3 illustrates how taggant tenofovir diphosphate concentration in dried blood spots is used in clinical trials to correlate and interpret medication adherence based upon TFV-DP concentration in DBS.

Series [2] can be described thus: ATP half-life corresponding value in humans. Conditions: human, in vivo, corresponding to the rat value. From the text:
The in vivo ATP pool is large, the half-life of ATP is relatively long, 3 days in rats, corresponding to about 10 days in humans. […] Given the long half-life of ATP, the measurement for gradients of adherence is analogous to hemoglobin A1C as a measure of gradients of glucose exposure over the preceding months.

Series [3] is described as follows: Daily 5+ ATP to rats for six days, 5+ ATP/1+ ATP ratio in dried blood spots by mass spectrometry. The settings on record: rat, red blood cells in dried blood spots, 100 mcg, in vivo ATP pool. From the text:
Once each day, blood spot samples were taken from each rat and dried.
The in vivo ATP pool is large, the half-life of ATP is relatively long, 3 days in rats, corresponding to about 10 days in humans.

Read-outs that look alike come from different tables or passages of the source.

One may read the half-life as the time in which the quantity being followed falls by half. In the case of `CC(Cn1cnc2c(N)ncnc21)OCP(=O)(O)OP(=O)(O)OP(=O)(O)O` (stereo in doubt) [TFV-DP, tenofovir-diphosphate], the half-life in series [1] (human) stood at 408 h. For the same molecule, in series [1], the “accumulation from a single dose to steady-state” value is recorded as 25 fold and the “time of build up in DBS until steady-state plateau” value is “approximately 60 days”.
On to `Nc1ncnc2c1ncn2[C@@H]1O[C@H](COP(=O)(O)OP(=O)(O)OP(=O)(O)O)[C@@H](O)[C@H]1O` [ATP, adenosine triphosphate], for which the half-life in series [2] was roughly 240 h; in series [3], 72 h.
